Experimental data published in US6680058B1, “Compositions and methods for contraception in or sterilization of mammals” (Board of Supervisors of Louisiana State University and …, priority 1997, dated 2004).
Where no end group is shown, it is not given here.

Key:
[1] = test system: sexually mature female rabbits; test: Sexually mature female rabbits, intravenous GnRH-hecate, GnRH challenge day 6, sacrifice day 7 (Examples 47-48); format: in vivo, rabbit
Protocol: Nine sexually mature female rabbits were injected intravenously with saline containing 0 mg (n=4) (Treatment 47) or 10 mg GnRH-hecate (n=5) (Treatment 48). Rabbits were injected intramuscularly with GnRH on day 6 post-treatment. Blood samples were collected for radioimmunoassay of LH and FSH as described above, and the animals were sacrificed on day 7 post-treatment. […] Again, the effects were more pronounced on GnRH neurons than on staining of pituitary gonadotropes.
The number of ovulation sites in rabbits in Examples 47 and 48 treated with 10 mg GnRH-hecate were reduced as compared to saline controls. The mean number of ovulation sites in four saline controls equalled 12.2±5.4, with S.E.M.=2.7. The mean number of ovulation sites in the five rabbits given 10 mg of GnRH-hecate was 3.6±1.1, with S.E.M.=0.5. This difference from control was significant (p=0.025).
The “LH surge” (the level of LH at one hour post-GnRH challenge, minus the resting level before challenge) in the four controls was 61.2±16.5 ng/mL, with S.E.M.=8.3; and in the treated group was 49.6±26.1 ng/mL, with S.E.M.=12 (p=0.22). Thus there was a trend towards lower LH levels in the treated group.

[2] = test system: sexually mature female New Zealand rabbits; test: Sexually mature female New Zealand rabbits, intravenous GnRH-hecate, GnRH challenge day 46, histology day 47 (Examples 44-46); format: in vivo, rabbit
Protocol: Seven sexually mature female New Zealand rabbits were injected intravenously with saline containing GnRH-hecate as follows:
Forty-six days later all rabbits were injected intramuscularly with 100 μg GnRH. Blood samples were collected at 0, 1, 4, and 24 hours, and LH and FSH levels in the blood samples were measured by radioimmunoassay. […] The rabbits were sacrificed the next day (day 47) for postmortem histological analysis. […] Ovarian and pituitary weights were reduced by the 10 mg GnRH-hecate treatment.

[3] = test system: GnRH receptor-bearing cells in the brain (neurons) and in the pituitary (gonadotrophic cells); test: Summary of the in vivo studies: selectivity of the GnRH-hecate conjugate; set-up: species or system rats and rabbits
[4] = test system: gonadotropes in the pituitary and neurons in the brain bearing GnRH receptors; test: Rats, treatments generally similar to treatments 9-14, immunohistochemical staining (Example 23); format: in vivo, rat; conditions: fusion peptide administered
Protocol: Subsequent experiments were conducted on rats using treatments generally similar to treatments 9-14 above. […] The selective killing of these cells was seen after the GnRH-hecate fusion peptide was administered; and after the administration of GnRH alone, followed 10 minutes later by the administration of hecate alone.

[5] = test system: pituitary basophilic (gonadotropic) cells; test: Adult female rat pituitary gland sections in tissue culture, histology ten hours after treatment (Examples 1-6); format: cell-based
Protocol: The pituitary gland of an adult female rat was harvested and divided into six sections of approximately equal size. One section was placed in each of six wells containing tissue culture medium at 37° C. A different treatment was applied to each well, as described below. Ten hours after treatment, the tissue from each well was fixed, and the histology of each was examined microscopically.

[6] = test system: sexually immature female rats; test: Sexually immature (33 day old) female rats, intravenous GnRH-hecate dose series, sacrificed at 24 hours or 14 days (Examples 39-43); format: in vivo, rat; conditions: for abnormal GnRH-receptor-containing neurons: sacrificed fourteen days after treatment
Protocol: Sexually immature (33 day old) female rats (randomly allocated into groups of three) were injected intravenously with saline or GnRH-hecate in saline as follows:
Animals were sacrificed at 24 hours or at 14 days after treatment. […] In the rats sacrificed fourteen days after treatment, 66% and 87% of the GnRH-receptor-containing neurons were abnormal in the rats that had received 1.0 and 1.5 mg of GnRH-hecate, respectively. Axonal degeneration in the 1.5 mg GnRH-hecate group was accompanied by over 90% reduction in median eminence staining for GnRH.

[7] = target: T1, GnRH receptor (Rattus norvegicus, UniProt P30969); test: Displacement of radiolabelled monoiodinated-GnRH from rat pituitary membranes (Example 24); format: binding; conditions: molar basis over a 1000-fold concentration range (n=6); native GnRH = 100%
T1 construct: specifically displaced radiolabelled monoiodinated-GnRH from rat pituitary membranes; from tissue; host or cells: rat pituitary membranes
T1 sequence (P30969 1-327): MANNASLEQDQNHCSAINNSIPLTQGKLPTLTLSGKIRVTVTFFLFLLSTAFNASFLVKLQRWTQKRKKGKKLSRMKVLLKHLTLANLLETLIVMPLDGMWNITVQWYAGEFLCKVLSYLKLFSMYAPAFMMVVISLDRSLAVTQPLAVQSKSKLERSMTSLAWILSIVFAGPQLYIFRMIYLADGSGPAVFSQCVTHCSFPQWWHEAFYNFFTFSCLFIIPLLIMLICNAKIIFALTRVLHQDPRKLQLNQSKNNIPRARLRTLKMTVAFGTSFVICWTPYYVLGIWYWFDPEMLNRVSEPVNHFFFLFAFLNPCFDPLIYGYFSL
Description: We also synthesized D-Lys^6GnRH (SEQ. ID NO. 13), so that hecate could be conjugated to the D-Lys^6, a position that could minimize interference with binding of the GnRH domain to the GnRH receptor. These synthetic peptides specifically displaced radiolabelled monoiodinated-GnRH from rat pituitary membranes.

[8] = test system: sexually mature, Sprague-Dawley female rats; test: Sexually mature Sprague-Dawley female rats, single intravenous treatment, necropsy 48 or 96 hours after treatment, H&E and PAS stain (Examples 15-22); format: in vivo, rat; conditions: for appearance of the pituitary glands: 1 mg i.v.
Protocol: Eight sexually mature, Sprague-Dawley female rats were randomly assigned to one of eight treatments. Each group of rats received a single treatment intravenously, as described below. Rats were sacrificed and necropsied either 48 or 96 hours after treatment. The ovaries, uterus, pancreas, liver, spleen, lungs, heart, thyroid, and adrenal glands were fixed in 10% buffered formalin; sectioned; and stained with H&E (hematoxylin and eosin) stain; except that the pituitary glands were stained with PAS (periodic acid-Schiff) stain with no counter-stain. The treatments were selected so that each animal received an equimolar amount of the compound with which it was treated.

[9] = 0.1 to 1.5 mg i.v., 24 hours or 14 days

GnRH-hecate: fusion peptide of modified GnRH bonded directly to the lytic peptide hecate, SEQ. ID NO. 3 (QHWSYGLRPGFALALKALKKALKKLKKALKKAL; ends and bridges not checked; also: GnRH part modified, modification not given here)
amount of LH released in response to GnRH ([1]; 10 mg i.v. (n=5), GnRH i.m. on day 6 post-treatment): lower in the treated animals than in the controls | mean number of ovulation sites ([1]; 10 mg i.v., five rabbits, S.E.M.=0.5, saline controls 12.2±5.4, p=0.025): 3.6±1.1 | LH surge (level of LH at one hour post-GnRH challenge, minus the resting level before challenge) ([1]; 10 mg i.v., S.E.M.=12, controls 61.2±16.5 ng/mL, p=0.22): 49.6 ± 26.1 ng/mL | effects on peripheral tissues ([1]; 10 mg i.v., day 7): No effects | effects on pituitary weight ([1]; 10 mg i.v., day 7): No effects | numbers of GnRH-induced ovulations ([1]; 10 mg i.v., day 7): reduced | numbers of tertiary ovarian follicles ([1]; 10 mg i.v., day 7): reduced | LH release in response to 100 μg GnRH i.m. ([2]; 5 mg or 10 mg i.v., challenge forty-six days later, radioimmunoassay): released LH in response to the GnRH | cells staining alpha-MSH in the pituitary ([2]; 5 mg or 10 mg i.v., day 47): increased numbers | cells staining for LH in the pituitary ([2]; 5 mg or 10 mg i.v., day 47): reduced numbers | hippocampus and other areas of the brain containing high concentrations of GnRH ([2]; 5 mg or 10 mg i.v., day 47): not discernibly affected | immunoreactive GnRH in CNS areas normally containing cell bodies ([2]; 5 mg or 10 mg i.v., day 47): faint and diffusely localized | numbers of GnRH-induced ovulations ([2]; 5 mg or 10 mg i.v., day 47): reduced | numbers of corpora lutea ([2]; 5 mg or 10 mg i.v., day 47): reduced | numbers of tertiary follicles ([2]; 5 mg or 10 mg i.v., day 47): reduced | reduction in number of normal individual cell bodies ([2]; 5 mg or 10 mg i.v., day 47): at least 50% | terminal fields, which normally contain the axons of GnRH receptor neurons ([2]; 5 mg or 10 mg i.v., day 47): not stained for GnRH | number of PAS-stained pituitary cells in the pars distalis, relative to control rabbits ([2]; 5 mg or 10 mg i.v., day 47, control = 100%): 177% | ovarian weights ([2]; 10 mg i.v., day 47): reduced | pituitary weights ([2]; 10 mg i.v., day 47): reduced | changes in other endocrine and non-endocrine tissues (except for the ovary) [3]: No changes | changes in pituitary cells that lacked GnRH receptors [3]: No changes | cytotoxic changes in neurons that lacked GnRH receptors [3]: No cytotoxic changes | effect on GnRH receptor-bearing cells [3]: selectively damaged GnRH receptor-bearing cells in the brain (neurons) and in the pituitary (gonadotrophic cells) | LH and FSH secretion by pituitary cells [4]: no longer secreted either LH or FSH | selective cell killing seen with immunohistochemical staining ([4]; treatments generally similar to treatments 9-14): selectively killed (1) gonadotropes in the pituitary, and (2) neurons in the brain bearing GnRH receptors | histology of pituitary tissue after treatment ([5]; 50 μM fusion peptide, ten hours): Widespread basophilic (gonadotropic) cellular destruction | histology of pituitary tissue after treatment ([5]; initial application of fusion peptide, second application two hours later): virtually destroyed, with only stromal cells remaining | abnormal GnRH-receptor-containing neurons ([6]; 1.0 mg i.v.): 66% | reduction in median eminence staining for GnRH ([6]; 1.5 mg i.v.): over 90% | abnormal GnRH-receptor-containing neurons ([6]; 1.5 mg i.v.): 87% | VP staining in the CNS [6, 9]: not altered | precipitate in the brain [6, 9]: no precipitate was found in the brain | morphology of GnRH-receptor-containing neurons ([6]; treatments with higher levels of GnRH-hecate): a large number of GnRH-receptor-containing neurons having abnormal morphologies | specific displacement of the radiolabelled peptide relative to equimolar concentrations of GnRH [7]: 123%±4% | appearance of the pituitary glands ([8]; sacrificed 48 hours after injection): slightly enlarged, hyperemic, and edematous | appearance of the pituitary glands ([8]; sacrificed 96 hours after injection): slightly hyperemic, but of expected size | gross lesions in the organs ([8]; 1 mg in 100 μL saline (2.7 mM) i.v., sacrificed 48 or 96 hours after injection): No gross lesions were noted in the organs of any of the four animals, other than the pituitary
